How the values were obtained:
[1] = tested on: Coxsackie virus group B, type 5; assay: Coxsackie virus infectivity after reagent treatment (TCID50 in FL cells); format: cell-based
Method: The FL cells were infected with the virus, and a 50% infection dose (unit: 50% tissue culture infectious dose [TCID50]) was calculated.
To eliminate the influence of serum contained in original viruses, a virus solution was previously 50 times diluted with PBS.

[2] = tested on: Adenovirus (nonproliferating, adenovirus type-5-derived); assay: Adenovirus infectivity after reagent treatment (fluorescent staining of FL cells); format: cell-based
Method: Monolayer FL cells (cell line contaminated with HeLa cells (derived from human cervical cancer epithelial cells)) on the cover slip (9×28 mm) were washed with PBS one time and then infected with a 50 μL of virus solution. After adsorption for 1 hour, the cells were washed with PBS one time, and then a maintenance solution (the same as the diluent) was added, followed by culture.
Two days after, fluorescent staining was performed with anti-adenovirus antibody (monoclonal antibody: Chemicon MAB805) and Alexa Fluor 488-labeled anti-mouse IgG antibody (SantaCruz Biotechnology), and positive cells were counted in a field of view under a fluorescent microscope (400 times) (average of 20 fields of view was calculated).

Feline calicivirus = Feline calicivirus infectivity after reagent treatment (TCID50 in CRFK cells); format: cell-based; details: equal amounts of virus and reagent, 3 minutes at room temperature
Method: To eliminate the influence of serum contained in the original virus, a virus solution was previously 5 times diluted with a diluent (Eagle's minimum essential medium, penicillin G, streptomycin). Equal amounts (35 μL) of the diluted virus solution and each reagent were mixed and allowed to react at room temperature for 3 minutes. Then, a ten-fold dilution series was prepared using the diluent.
Monolayer CRFK cells on a 96-well plate were washed with PBS one time and then the diluted virus solution was inoculated (50 μl/well). After incubation with a CO2 incubator for adsorption and penetration of the virus for 1 hour, the cells were washed with PBS one time, and then a maintenance solution (the same as the diluent) was added (100 μL/well), followed by culture. Three days after, the cells were fixed and stained after extension of CPE, and a 50% infectious dose (unit: 50% tissue culture infectious dose [TCID50]) was calculated using a Behrens-Kaerber method to measure viral infectivity.

[3] = Measurement of pH of the reagents; format: physicochemical; details: summary Table 9
Description: Also, the experiment was repeated to confirm reproducibility.

Rotavirus Wa Strain = assay: Rotavirus infectivity after reagent treatment (fluorescent staining of MA104 cells); details: equal amounts of virus and reagent, 3 minutes at room temperature; for Residual infectivity after treatment: MA104 cells
Method: Equal amounts (35 μL) of a virus solution and a reagent were mixed, followed by reaction at room temperature for 3 minutes. A 10-fold dilution series was formed using a diluent (MEM) and the MA104 cells on a cover slip (9×28 mm) were infected with 50 μL of the virus solution. After adsorption for 1 hour, the cells were washed with PBS one time and a growth medium (10% PBS-MEM) was added, followed by culture.
One day after, fluorescent staining was performed with anti-rotavirus antibody (monoclonal antibody: Abgene REMEI-1) and Alexa Fluor 488-labeled anti-mouse IgG antibody (SantaCruz Biotechnology), and positive cells were counted in a field of view under a fluorescent microscope (400 times) (average area of 20 fields of view). The number of positive cells per cover slip was calculated on the basis of the area of the field of view, and further infectivity per mL of virus solution was calculated (unit: CIU (cell infecting units)/ml; Kiyotani et al., Virology 177:65-74, 1990). When the number of positive cells was small, the positive cells were measured by observing the whole of the cover slip.

[4] = equal amounts of virus and reagent, 3 minutes at room temperature
[5] = equal amounts of virus and reagent, 3 minutes at room temperature, FL cells

| Compound | Anti-Coxsackie virus activity (in words) [1] | Effect (times) (to PBS) [1, 4] | Infectivity ratio (to PBS) [1, 4] | Infectivity (TCID50/ml) [1, 5] [TCID50/ml] | Inactivation activity for adenovirus (in words) [2] | Effect (times) (to PBS) [2, 4] | Infectivity ratio (to PBS) [2, 4] | Residual infectivity after treatment [2, 5] [CIU/ml] | Effect (times) (to PBS) (Feline calicivirus) | Infectivity ratio (to PBS) (Feline calicivirus) | Infectivity (TCID50/ml) (Feline calicivirus; CRFK cells) | pH [3] | Infectivity ratio (to PBS) (Rotavirus Wa Strain) | Residual infectivity after treatment (Rotavirus Wa Strain) [CIU/ml] |
| --- | --- | --- | --- | --- | --- | --- | --- | --- | --- | --- | --- | --- | --- | --- |
| CCO [50% (v/v) ethanol, ethanol] | no anti-Coxsackie virus activity | 1 | 1.778 | 3.2E+07 | no inactivation ability | 4 | 0.2 | 7.7E+07 | 12 | 0.09 | 3.2E+07 | 5.09 | 0.06 | 6.2E+05 |
| CCO [80% (v/v) ethanol, ethanol] |  |  |  |  |  |  |  |  |  |  |  |  | 0 | 0 |
